Laboratory results published in patent US5589568A (priority 1994, dated 1996).
Like-named read-outs stand apart in the source and are kept apart here. Where a SMILES comes first, the peptide text is derived from it. Where no end group is shown, it is not given here. The star is where a group is joined. Dodecyl = CCCCCCCCCCCC*; X1 = CCCCCCCCCCCCCCCC*

Key:
Go = molecular target: T1, Go (Bos taurus, UniProt P08239); experiment: steady state GTPase activity of Go in phospholipid vesicles; format: biochemical, bovine; details: for GTPase Go 100 μM: 100 μM peptide; for GTPase Go 100 μM / Turnover number Go 10 μg/ml / Turnover number Go 100 μg/ml / GTPase Go 10 μM: 15 min at 20° C.; for GTPase Go 100 μM / Turnover number Go 10 μg/ml / GTPase Go 10 μM: PE/PC/PS vesicles; for Turnover number Go 10 μg/ml: 10 μg/ml amine; for Turnover number Go 100 μg/ml: 100 μg/ml amine; for GTPase Go 10 μM: 10 μM peptide; for ability to activate Gi and Go (in words): both Gi and Go, gramicidin S and dynorphin at 10 μM; for stimulation of GTPase activity: at higher concentrations, G protein not named in the sentence (Gi and Go tested)
T1 construct: proteins were extracted from bovine cerebral cortical membranes; from tissue; host or cells: bovine brain (cerebral cortical membranes)
T1 sequence (P08239 2-354 limits assumed): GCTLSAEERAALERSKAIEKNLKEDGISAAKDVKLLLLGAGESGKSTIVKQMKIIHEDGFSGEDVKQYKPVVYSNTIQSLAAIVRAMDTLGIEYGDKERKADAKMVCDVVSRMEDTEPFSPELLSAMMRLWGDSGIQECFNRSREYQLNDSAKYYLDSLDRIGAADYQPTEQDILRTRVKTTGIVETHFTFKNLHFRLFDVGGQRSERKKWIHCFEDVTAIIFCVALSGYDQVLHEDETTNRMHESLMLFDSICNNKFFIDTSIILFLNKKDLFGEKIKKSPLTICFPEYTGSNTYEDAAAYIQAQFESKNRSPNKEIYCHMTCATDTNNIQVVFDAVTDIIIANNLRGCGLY
T1 sequence (P62871 2-340 partner limits assumed): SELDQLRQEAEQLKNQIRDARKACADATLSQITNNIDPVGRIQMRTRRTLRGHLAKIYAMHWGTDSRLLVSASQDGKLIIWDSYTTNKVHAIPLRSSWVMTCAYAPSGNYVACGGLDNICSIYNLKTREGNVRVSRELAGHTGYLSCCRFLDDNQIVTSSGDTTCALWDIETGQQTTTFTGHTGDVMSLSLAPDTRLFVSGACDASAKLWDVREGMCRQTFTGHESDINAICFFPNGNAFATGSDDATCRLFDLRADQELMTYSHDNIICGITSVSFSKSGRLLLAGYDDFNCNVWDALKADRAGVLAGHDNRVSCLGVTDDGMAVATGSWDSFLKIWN
T1 sequence (P63212 2-68 partner limits assumed): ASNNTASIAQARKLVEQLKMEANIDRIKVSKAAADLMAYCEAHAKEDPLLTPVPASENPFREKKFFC
Description: (§1) G proteins were reconstituted into phospholipid vesicles composed of dioleoyl-PC/bovine brain PS/1-palmitoyl,2-oleoyl-PE (3:4:3) as reported previously by Higashijima et al., 1988, incorporated herein by reference.

Gi = experiment: steady state GTPase activity of Gi in phospholipid vesicles; format: biochemical, rabbit; details: for GTPase Gi 100 μM: 100 μM peptide; for GTPase Gi 100 μM / Turnover number Gi 10 μg/ml / Turnover number Gi 100 μg/ml / GTPase Gi 10 μM: 30 min at 30° C.; for GTPase Gi 100 μM / GTPase Gi 10 μM: PE/PC/PS vesicles; for Turnover number Gi 10 μg/ml: 10 μg/ml amine; for Turnover number Gi 100 μg/ml: 100 μg/ml amine; for GTPase Gi 10 μM: 10 μM peptide;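 for all read-outs here: Steady-state GTP hydrolysis by Gi measured in a detergent-free buffer containing 1.1 mM MgSO4 plus the specified guanine nucleotide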
Description: as §1
The concentration of free Mg^2+ in assay medium that contains 5 mM EDTA and no added Mg^2+ is estimated to be 0.1-0.2 nM according to Brandt et al., 1988 and 1983.

Gs = Gs (Homo sapiens, UniProt P63092); experiment: steady state GTPase activity of Gs; format: biochemical
Chain of Gs (P63092 whole entry): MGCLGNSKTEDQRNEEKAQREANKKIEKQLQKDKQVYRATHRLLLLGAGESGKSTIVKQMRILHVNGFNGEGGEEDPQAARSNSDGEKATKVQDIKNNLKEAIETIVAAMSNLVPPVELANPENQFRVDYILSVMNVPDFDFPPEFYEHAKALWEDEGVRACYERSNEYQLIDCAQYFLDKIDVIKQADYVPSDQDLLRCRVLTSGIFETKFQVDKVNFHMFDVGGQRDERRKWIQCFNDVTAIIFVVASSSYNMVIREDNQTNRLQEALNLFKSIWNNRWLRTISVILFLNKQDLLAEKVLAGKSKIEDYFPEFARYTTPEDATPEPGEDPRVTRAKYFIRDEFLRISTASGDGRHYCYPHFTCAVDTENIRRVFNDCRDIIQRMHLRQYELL
Description: Methods for the assay of steady state GTP hydrolysis and GTPγS binding have been described previously by Higashijima, 1987, and Ferguson, 1986, and incorporated herein by reference. Unless noted otherwise, assays of steady state GTP hydrolysis and of the binding and dissociation of guanine nucleotides were carried out in the buffer described previously, but without detergent and with 1.1 mM MgSO4 and the nucleotide specified in the text. When necessary, the concentration of free Mg^2+ was adjusted using EDTA buffers as described previously by Higashijima, 1987, and incorporated herein by reference.
The data set forth in the following tables represent data generated by the inventors employing the steady state GTP hydrolysis, expressed as molar turnover numbers, are described herein under the "Assay" section of the Experimental Procedures in Example 1. The data has been classified according to the criteria outlined below and the effects of each peptide and modified variant on Go, Gi, and Gs have been tabulated. Table III below sets forth data generated for various mastoparan analogues designed by the inventors, in comparison with the various naturally-occurring mastoparans (e.g., MP, MP-A and MP-T). Table IV sets forth similar data generated for various receptor-based peptides designed by the inventors based on a consideration of various G-protein linked receptors.
Apparent affinity (af.) and apparent efficacy (ef.) were estimated by EC50 and maximum turnover number of GTPase activity.

[1] = Table VI, receptor-based peptides

Molecule | GTPase Go 100 μM (Go) | GTPase Gi 100 μM (Gi) | Turnover number Go 10 μg/ml (Go) | Turnover number Go 100 μg/ml (Go) | Turnover number Gi 10 μg/ml (Gi) | Turnover number Gi 100 μg/ml (Gi) | also measured
CCCCCCCCCCCCSC[C@H](N)C(=O)N1CCC[C@H]1C(=O)N[C@@H](Cc1ccccc1)C(=O)N[C@@H](CCCNC(=N)N)C(=O)N[C@@H](Cc1ccc(O)cc1)C(=O)N[C@@H](CCC(N)=O)C(=O)N[C@@H](CO)C(=O)N[C@@H](CC(C)C)C(=O)N[C@@H](CCSC)C(=O)N[C@H](C(=O)N[C@@H](CCCNC(=N)N)C(=O)N[C@@H](C)C(=O)N[C@@H](CCCNC(=N)N)C(=O)N[C@@H](C)C(=O)N[C@@H](CCCCN)C(=O)N[C@H](C(=O)N[C@H](C(N)=O)[C@@H](C)CC)C(C)C)[C@@H](C)O [C12-ER39] (H-C(Dodecyl)PFRYQSLMTRARAKVI-NH2; N-terminus assumed) | – | – | – | – | – | – | Go ef. (apparent efficacy, maximum turnover number of GTPase activity) (Go; [1]): G (Good (G): 5-10 fold); Gi ef. (apparent efficacy, maximum turnover number of GTPase activity) (Gi; [1]): G (Good (G): 5-10 fold); EC50 (Gi; Table VI, receptor-based peptides, read-out: Gi af. (apparent affinity, estimated by EC50 of GTPase activity)): 3 to 10 µM; Gs ef. (apparent efficacy, maximum turnover number of GTPase activity) (Gs; [1]): F (Fair (F): 2-5 fold)
RPPGFSPFR [Bradykinin, reference compound] | 0.05 min⁻¹ | 0.03 min⁻¹ | – | – | – | – | –
CCCCCCCCCCCCCCCCSC[C@H](NC(=O)[C@H](CC(C)C)NC(=O)[C@H](C)NC(=O)[C@H](CCCCN)NC(=O)[C@H](C)NC(=O)[C@H](CC(C)C)NC(=O)[C@H](C)NC(=O)[C@H](C)NC(=O)[C@H](CC(C)C)NC(=O)[C@H](C)NC(=O)[C@H](CCCCN)NC(=O)[C@H](Cc1ccc(O)cc1)NC(=O)[C@H](CC(N)=O)NC(=O)[C@@H](N)[C@@H](C)CC)C(N)=O [C16-ER17] (H-INYKALAALAKALC(X1)-NH2; N-terminus assumed) | – | – | – | – | – | – | Goo ef. (apparent efficacy, maximum turnover number of GTPase activity) (Go; Table IV): E (Excellent (E): 30-10 fold); G1 ef. (apparent efficacy, maximum turnover number of GTPase activity) (Gi; Table IV): E (Excellent (E): 30-10 fold); EC50 (Gi; Table IV, read-out: G1 af. (apparent affinity, estimated by EC50 of GTPase activity)): < 3 µM; Gs ef. (apparent efficacy, maximum turnover number of GTPase activity) (Gs; Table IV): F (Fair (F): 2-5 fold)
NC(=O)[C@@H]1CCCN1C(=O)[C@H](Cc1cnc[nH]1)NC(=O)[C@@H]1CCC(=O)N1 [TRH, thyrotropin releasing hormone, reference compound] | 0.06 min⁻¹ | 0.03 min⁻¹ | – | – | – | – | –
CCCCCCCCCCCCCC[N+](C)(C)Cc1ccccc1.[Cl-] [BAC (C14), reference compound] | – | – | 0.9 min⁻¹ | 0.2 min⁻¹ | 0.04 min⁻¹ | < 0.01 min⁻¹ | –
Calcitonin [reference compound] | 0.09 min⁻¹ | 0.01 min⁻¹ | – | – | – | – | –
Ac-WKKLLKLLKKLLKL-NH2 [CBP6, reference compound] | 0.38 min⁻¹ | 0.06 min⁻¹ | – | – | – | – | GTPase Go 10 μM (Go): 0.76 min⁻¹; ability to activate Gi and Go (in words) (Go; GTPase): quite active; GTPase Gi 10 μM (Gi): 0.51 min⁻¹
CCCCCCCCCCCCCCCCCC[N+](C)(C)C.[Cl-] [C18 Me3 NCl, reference compound] | – | – | 0.61 min⁻¹ | < 0.01 min⁻¹ | 0.04 min⁻¹ | < 0.01 min⁻¹ | –
luteinizing hormone releasing hormone [LHRH, reference compound] | 0.04 min⁻¹ | 0.03 min⁻¹ | – | – | – | – | –
CCCCCCCCCCCCCCCCCC[N+](C)(C)Cc1ccccc1.[Cl-] [BAC (C18 ), reference compound] | – | – | 1.1 min⁻¹ | 0.3 min⁻¹ | 0.03 min⁻¹ | < 0.01 min⁻¹ | –
CCCCCCCCCCCCN [C12 NH3 Cl, dodecylamine] | – | – | 0.18 min⁻¹ | 0.61 min⁻¹ | 0.06 min⁻¹ | 0.31 min⁻¹ | stimulation of Gi by amines (in words) (Gi; Table III): stimulated Gi significantly
Angiotensin II (DRVYIHPF; Angiotensin-2; UniProt P01019 25-32, looked up) [reference compound] | 0.31 min⁻¹ | 0.23 min⁻¹ | – | – | – | – | stimulation of GTPase activity (Go): more than 3 fold
Gramicidin S [reference compound] | 0.47 min⁻¹ | 0.31 min⁻¹ | – | – | – | – | GTPase Go 10 μM (Go): 0.17 min⁻¹; ability to activate Gi and Go (in words) (Go; GTPase): somewhat stimulatory; GTPase Gi 10 μM (Gi): 0.13 min⁻¹
CC[C@H](C)[C@H](NC(=O)CN)C(=O)NCC(=O)N[C@@H](C)C(=O)N[C@H](C(=O)N[C@@H](CC(C)C)C(=O)N[C@@H](CCCCN)C(=O)N[C@H](C(=O)N[C@@H](CC(C)C)C(=O)N[C@H](C(=O)N[C@H](C(=O)NCC(=O)N[C@@H](CC(C)C)C(=O)N1CCC[C@H]1C(=O)N[C@@H](C)C(=O)N[C@@H](CC(C)C)C(=O)N[C@H](C(=O)N[C@@H](CO)C(=O)N[C@@H](Cc1c[nH]c2ccccc12)C(=O)N[C@H](C(=O)N[C@@H](CCCCN)C(=O)N[C@@H](CCCNC(=N)N)C(=O)N[C@@H](CCCCN)C(=O)N[C@@H](CCCNC(=N)N)C(=O)N[C@@H](CCC(N)=O)C(=O)N[C@@H](CCC(N)=O)C(N)=O)[C@@H](C)CC)[C@@H](C)CC)[C@@H](C)O)[C@@H](C)O)C(C)C)C(C)C [Melittin, reference compound] | 0.56 min⁻¹ | 0.40 min⁻¹ | – | – | – | – | GTPase Go 10 μM (Go): 0.63 min⁻¹; ability to activate Gi and Go (in words) (Go; GTPase): potency and efficacy roughly equivalent to that of mastoparan; GTPase Gi 10 μM (Gi): 0,37 min^-1
α-Mating factor [reference compound] | 0.19 min⁻¹ | 0.05 min⁻¹ | – | – | – | – | stimulation of GTPase activity (Go): more than 3 fold
Melanostatin [reference compound] | 0.05 min⁻¹ | 0.03 min⁻¹ | – | – | – | – | –
CCCC[N+](CCCC)(CCCC)Cc1ccccc1.[Cl-] [BzBu3 NCl, reference compound] | – | – | 0.07 min⁻¹ | 0.07 min⁻¹ | 0.04 min⁻¹ | 0.04 min⁻¹ | –
CCCCCCCCCCCC[N+](C)(C)C.[Cl-] [C12 Me3 NCl, reference compound] | – | – | 0.1 min⁻¹ | 0.5 min⁻¹ | 0.04 min⁻¹ | 0.04 min⁻¹ | –
Dynorphin [reference compound] | 0.33 min⁻¹ | 0.10 min⁻¹ | – | – | – | – | GTPase Go 10 μM (Go): 0.13 min⁻¹; ability to activate Gi and Go (in words) (Go; GTPase): somewhat stimulatory
[D-Ala^2 ]Leu-enkephalin [DALE, reference compound] | 0.06 min⁻¹ | 0.02 min⁻¹ | – | – | – | – | –
CCCCCCCCCCCCCCCC[N+](C)(C)Cc1ccccc1.[Cl-] [BAC (C16 ), reference compound] | – | – | 1.4 min⁻¹ | 0.08 min⁻¹ | 0.04 min⁻¹ | < 0.01 min⁻¹ | –
Substance P [reference compound] | 0.25 min⁻¹ | 0.09 min⁻¹ | – | – | – | – | stimulation of Go (Go; GTPase, Table II): more than 4 fold; stimulation of Gi (Gi; GTPase, Table II): more than 4 fold
CC[C@H](C)[C@H](N)C(=O)N[C@@H](CC(N)=O)C(=O)N[C@@H](Cc1ccc(O)cc1)C(=O)N[C@@H](CCCCN)C(=O)N[C@@H](C)C(=O)N[C@@H](CC(C)C)C(=O)N[C@@H](C)C(=O)N[C@@H](C)C(=O)N[C@@H](CC(C)C)C(=O)N[C@@H](C)C(=O)N[C@@H](CCCCN)C(=O)N[C@@H](CCCCN)C(=O)N[C@H](C(=O)N[C@@H](CC(C)C)C(N)=O)[C@@H](C)CC [ER13] | – | – | – | – | – | – | EC50 (Go): 3 to 10 µM; EC50 (Gs; Table IV, read-out: Gs af. (apparent affinity, estimated by EC50 of GTPase activity)): 3 to 10 µM
